21 compounds from US20250382296A1, “NITROGEN-CONTAINING FUSED THREE RING PRMT5 INHIBITOR, AND PREPARATION METHOD THEREFOR AND PHARMACEUTICAL USE THEREOF” (Abbisko Therapeutics Co., Ltd., priority 2022, published 2025) can be followed below.

The IC50 is the midpoint of a concentration-inhibition curve. A higher IC50 goes with weaker potency.

Test [1] deals with HCT 116 wild-type MTAP cells. As to the kind of experiment: Inhibition of proliferation of HCT116 wild-type MTAP cells (CellTiter-Glo, 6 days). It is filed as cell-based. The note with it: Homo sapiens, HCT-116, 144 h. The method, then: (§1) 1. HCT 116 MTAP-knockout cells and HCT 116 wild-type MTAP cells were plated in 96-well flat-bottom plates and cultured overnight at 37° C. and […] in McCoy's 5A medium containing 10% fetal bovine serum+1% penicillin-streptomycin.
(§2) 2. The next day, compounds were each dissolved in DMSO, diluted successively with DMSO and medium and then transferred to cell plates; the final concentration of each compound was 10 μM, 4-fold dilution was performed to obtain 9 concentration points, and a DMSO control was provided.
(§3) 3. Cells not treated with compound were subjected to CellTiter-Glo Luminescent Cell Viability Assay (Promega) to detect the cell viability, and reference was made to the kit instructions for the operation; the plates were then placed on an EnVision Multilabel Reader to detect luminescence signals.
(§4) 4. Meanwhile, the cell plates containing cells treated with compounds were cultured continuously at 37° C. and […] CO2 for 6 days.
(§5) 5. Then, the cell viability was also detected by CellTiter-Glo.
(§6) 6. Finally, dose response curves were plotted using the four parameter dose response curve module of GraphPad Prism v 9.2.0 software and proliferation inhibition IC50 (unit: nM) was calculated.

For test [2], the system named is HCT 116 MTAP-knockout cells. In words: Inhibition of proliferation of HCT116 MTAP-knockout cells (CellTiter-Glo, 6 days). It is filed as cell-based, human. The note with it: for IC50: Homo sapiens, HCT-116, 144 h, proliferation inhibition, HCT116 MTAP-knockout, 6 days, CellTiter-Glo; for Selectivity: IC50 HCT116 wild-type cells / IC50 HCT116 MTAP-knockout cells. As to the method:
as §1, §2, §3, §4, §5, §6
A general note: ATP-based viability assays read luminescence as a measure of living cells.

Take `Cn1cc(N(Cc2ccc(C(F)(F)F)cn2)C(=O)c2ccc3nc(N)c4cncn4c3c2)cn1` [Example 149, 4-amino-N-(1-methyl-1H-pyrazol-4-yl)-N-((5-(trifluoromethyl)pyridin-2-yl)methyl)imidazo[1,5-a]quinoxaline-8-carboxamide]: in test [1], the 50% inhibitory concentration (IC50) worked out at 7.21 µM. In test [2], this compound displayed a 50% inhibitory concentration (IC50) of 0.05 µM and a Selectivity of 144.1.

As to `CCC(C1CC1)N(Cc1ccc(C(F)(F)F)cn1)C(=O)c1ccc2nc(N)c3cncn3c2c1` (stereo not drawn) [Example 154, 4-amino-N-(1-cyclopropylpropyl)-N-((5-(trifluoromethyl)pyridin-2-yl)methyl)imidazo[1,5-a]quinoxaline-8-carboxamide], the IC50 stood at 0.406 µM in test [1] and 0.022 µM in test [2]. In addition, the Selectivity in test [2] stood at 18.5.

In test [1], `Nc1nc2ccc(C(=O)N(Cc3ccc(C(F)(F)F)nn3)CC3CC3)cc2n2cncc12` [Example 156, 4-amino-N-(cyclopropylmethyl)-N-((6-(trifluoromethyl)pyridazin-3-yl)methyl)imidazo[1,5-a]quinoxaline-8-carboxamide] displayed an IC50 of 1.61 µM. Further, in test [2], inhibition was half-maximal at 0.01 µM (IC50) and the Selectivity stood at 160.7.

As to `Nc1nc2cc(F)c(C(=O)N(Cc3ccc(C(F)(F)F)cn3)CC3CC3)cc2n2cncc12` [Example 163, 4-amino-N-(cyclopropylmethyl)-7-fluoro-N-((5-(trifluoromethyl)pyridin-2-yl)methyl)imidazo[1,5-a]quinoxaline-8-carboxamide], in test [1], half-maximal inhibition (IC50) required 0.33 µM. In test [2], the IC50 stood at 0.006 µM and the Selectivity was found to be 55.

On to `Cc1cc2nc(N)c3cncn3c2cc1C(=O)N(Cc1ccc(C(F)(F)F)cn1)CC1CC1` [Example 164, 4-amino-N-(cyclopropylmethyl)-7-methyl-N-((5-(trifluoromethyl)pyridin-2-yl)methyl)imidazo[1,5-a]quinoxaline-8-carboxamide], for which the midpoint of inhibition in test [1], the IC50, lay at 0.706 µM. In test [2], this compound yielded a half-inhibitory concentration (IC50) of 0.008 µM and a Selectivity of 88.3.

On to `Nc1nc2cc(Cl)c(C(=O)N(Cc3ccc(C(F)(F)F)cn3)CC3CC3)cc2n2cncc12` [Example 165, 4-amino-7-chloro-N-(cyclopropylmethyl)-N-((5-(trifluoromethyl)pyridin-2-yl)methyl)imidazo[1,5-a]quinoxaline-8-carboxamide], for which, in test [1], the IC50 was 0.358 µM. In test [2], the IC50 was found to be 0.011 µM and the Selectivity turned out to be 32.5.

As to `Cc1ncc2c(N)nc3ccc(C(=O)N(Cc4ccc(C(F)(F)F)cn4)CC4CC4)cc3n12` [Example 167, 4-amino-N-(cyclopropylmethyl)-1-methyl-N-((5-(trifluoromethyl)pyridin-2-yl)methyl)imidazo[1,5-a]quinoxaline-8-carboxamide], the half-maximal inhibitory concentration (IC50) was 2.71 µM in test [1] and 0.074 µM in test [2]. The Selectivity in test [2] amounted to 36.6.

In test [1], `Cc1ncc2c(N)nc3cc(F)c(C(=O)N(Cc4ccc(C(F)(F)F)cn4)CC4CC4)cc3n12` [Example 168, 4-amino-N-(cyclopropylmethyl)-7-fluoro-1-methyl-N-((5-(trifluoromethyl)pyridin-2-yl)methyl)imidazo[1,5-a]quinoxaline-8-carboxamide] yielded an IC50 of 7.91 µM. Besides, in test [2], the half-maximal inhibitory concentration (IC50) was determined as 0.111 µM and the Selectivity turned out to be 71.3.

With `Cc1cc2nc(N)c3cnc(C)n3c2cc1C(=O)N(Cc1ccc(C(F)(F)F)cn1)CC1CC1` [Example 169, 4-amino-N-(cyclopropylmethyl)-1,7-dimethyl-N-((5-(trifluoromethyl)pyridin-2-yl)methyl)imidazo[1,5-a]quinoxaline-8-carboxamide], the half-inhibitory concentration (IC50) in test [1] was 1.88 µM; in test [2], 0.035 µM. The compound also showed a Selectivity in test [2] of 53.6.

Consider `CN(C(=O)c1ccc2nc(N)c3cncn3c2c1)C1COCc2cc(C(F)(F)F)ccc21` (stereo not drawn) [Example 179, 4-amino-N-methyl-N-(7-(trifluoromethyl)isochroman-4-yl)imidazo[1,5-a]quinoxaline-8-carboxamide], for which it took 3.72 µM to reach half-maximal inhibition in test [1] (IC50). In test [2], this compound had a half-inhibitory concentration (IC50) of 0.067 µM and a Selectivity of 55.5.

Regarding `Nc1nc2ccc(C(=O)N(CC3CC3)[C@@H]3COc4nc(C(F)(F)F)ccc43)cc2n2cncc12` [Example 181a, (S)-4-amino-N-(cyclopropylmethyl)-N-(6-(trifluoromethyl)-2,3-dihydrofuro[2,3-b]pyridin-3-yl)imidazo[1,5-a]quinoxaline-8-carboxamide], the IC50 is 5.1 µM in test [1] and 0.33 µM in test [2]. In test [2], this compound gave a Selectivity of 15.5.

In turn, `Cc1cc2nc(N)c3cncn3c2cc1C(=O)N(c1cnn(C)c1)[C@@H]1COc2nc(C(F)(F)F)ccc21` [Example 206a, (S)-4-amino-7-methyl-N-(1-methyl-1H-pyrazol-4-yl)-N-(6-(trifluoromethyl)-2,3-dihydrofuro[2,3-b]pyridin-3-yl)imidazo[1,5-a]quinoxaline-8-carboxamide] displayed an IC50 in test [1] of 2.23 µM. In test [2], this compound registered a half-maximal inhibitory concentration (IC50) of 0.041 µM and a Selectivity of 54.5.

On to `Cc1cc2nc(N)c3cncn3c2cc1C(=O)N(c1cnn(C)c1)[C@@H]1COc2cc(C(F)(F)F)ccc21` [Example 207a, (S)-4-amino-7-methyl-N-(1-methyl-1H-pyrazol-4-yl)-N-(6-(trifluoromethyl)-2,3-dihydrobenzofuran-3-yl)imidazo[1,5-a]quinoxaline-8-carboxamide], for which, in test [1], the midpoint of inhibition, the IC50, lay at 0.07 µM. In test [2], this compound registered an IC50 of 0.002 µM and a Selectivity of 35.

For the compound `CCn1cc(N(C(=O)c2ccc3nc(N)c4cncn4c3c2)[C@@H]2COc3cc(C(F)(F)F)ccc32)cn1` [Example 208a, (S)-4-amino-N-(1-ethyl-1H-pyrazol-4-yl)-N-(6-(trifluoromethyl)-2,3-dihydrobenzofuran-3-yl)imidazo[1,5-a]quinoxaline-8-carboxamide], the figures for the IC50 in test [1] and in test [2] were 0.523 µM and 0.005 µM, respectively. In test [2], this compound registered a Selectivity of 104.6.

In the case of `Cn1cc(N(C(=O)c2cc3c(cc2Cl)nc(N)c2cncn23)[C@@H]2COc3cc(C(F)(F)F)ccc32)cn1` [Example 210a, (S)-4-amino-7-chloro-N-(1-methyl-1H-pyrazol-4-yl)-N-(6-(trifluoromethyl)-2,3-dihydrobenzofuran-3-yl)imidazo[1,5-a]quinoxaline-8-carboxamide], the half-inhibitory concentration (IC50) was found to be 0.059 µM in test [1] and 0.001 µM in test [2]. This compound came in with a Selectivity in test [2] of 59.

On to `Cn1cc(N(C(=O)c2cc3c(cc2Cl)nc(N)c2cncn23)[C@@H]2COc3nc(C(F)(F)F)ccc32)cn1` [Example 211a, (S)-4-amino-7-chloro-N-(1-methyl-1H-pyrazol-4-yl)-N-(6-(trifluoromethyl)-2,3-dihydrofuro[2,3-b]pyridin-3-yl)imidazo[1,5-a]quinoxaline-8-carboxamide], for which the IC50 in test [1] is 1.33 µM; in test [2], 0.019 µM. The compound further showed a Selectivity in test [2] of 69.9.

With `Nc1nc2cc(Cl)c(C(=O)N(Cc3ccc(C(F)(F)F)nn3)CC3CC3)cc2n2cncc12` [Example 212, 4-amino-7-chloro-N-(cyclopropylmethyl)-N-((6-(trifluoromethyl)pyridazin-3-yl)methyl)imidazo[1,5-a]quinoxaline-8-carboxamide], half-maximal inhibition in test [1] (IC50) was put at 0.383 µM. In test [2], this compound came in with an IC50 of 0.008 µM and a Selectivity of 47.9.

On to `Cc1cc2nc(N)c3cncn3c2cc1C(=O)N(Cc1ccc(C(F)(F)F)nn1)CC1CC1` [Example 213, 4-amino-N-(cyclopropylmethyl)-7-methyl-N-((6-(trifluoromethyl)pyridazin-3-yl)methyl)imidazo[1,5-a]quinoxaline-8-carboxamide], for which the values for the concentration for half-maximal inhibition (IC50) in test [1] and in test [2] were 1.32 µM and 0.015 µM, respectively. The compound further yielded a Selectivity in test [2] of 87.9.

`CN(C(=O)c1ccc2nc(N)c3cncn3c2c1)C1COc2cc(-c3cnn(C)c3)ccc21` (stereo not drawn) [Example 214, 4-amino-N-methyl-N-(6-(1-methyl-1H-pyrazol-4-yl)-2,3-dihydrobenzofuran-3-yl)imidazo[1,5-a]quinoxaline-8-carboxamide] displayed a half-inhibitory concentration (IC50) in test [1] above 10 µM. Moreover, in test [2], the IC50 came out at 0.188 µM and the Selectivity is on record as above 53.1.

Regarding `Nc1nc2cc(F)c(C(=O)N(Cc3ccc(C(F)(F)F)nn3)CC3CC3)cc2n2cncc12` [Example 215, 4-amino-N-(cyclopropylmethyl)-7-fluoro-N-((6-(trifluoromethyl)pyridazin-3-yl)methyl)imidazo[1,5-a]quinoxaline-8-carboxamide], the concentration for half-maximal inhibition (IC50) turned out to be 0.314 µM in test [1] and 0.008 µM in test [2]. In test [2], this compound came in with a Selectivity of 39.3.

In the case of `Nc1nc2ccc(C(=O)N(c3cn[nH]c3)[C@@H]3COc4cc(C(F)(F)F)ccc43)cc2n2cncc12` [Example 216, (S)-4-amino-N-(1H-pyrazol-4-yl)-N-(6-(trifluoromethyl)-2,3-dihydrobenzofuran-3-yl)imidazo[1,5-a]quinoxaline-8-carboxamide], the concentration for half-maximal inhibition (IC50) came to 1.08 µM in test [1] and 0.011 µM in test [2]. The Selectivity in test [2] came out at 98.3.
